# Data reported in ChEMBL document CHEMBL2439953, “Dimeric argininamide-type neuropeptide Y receptor antagonists: chiral discrimination between Y1 and Y4 receptors” (Bioorg Med Chem, 2013).
# What was measured:
# [1] = target: T1, Neuropeptide Y receptor type 4 (Homo sapiens, UniProt P50391); assay: Binding affinity to human neuropeptide Y receptor type 4 receptor expressed in CHO cells using Cy5-[K4]-hPP by flow cytometric analysis; type: cell-based
# [2] = target: T2, Neuropeptide Y receptor type 2 (Homo sapiens, UniProt P49146); assay: Binding affinity to human neuropeptide Y receptor type 2 receptor expressed in CHO cells using Cy5-pNPY by flow cytometric analysis; type: cell-based
# T2 sequence (P49146 whole entry): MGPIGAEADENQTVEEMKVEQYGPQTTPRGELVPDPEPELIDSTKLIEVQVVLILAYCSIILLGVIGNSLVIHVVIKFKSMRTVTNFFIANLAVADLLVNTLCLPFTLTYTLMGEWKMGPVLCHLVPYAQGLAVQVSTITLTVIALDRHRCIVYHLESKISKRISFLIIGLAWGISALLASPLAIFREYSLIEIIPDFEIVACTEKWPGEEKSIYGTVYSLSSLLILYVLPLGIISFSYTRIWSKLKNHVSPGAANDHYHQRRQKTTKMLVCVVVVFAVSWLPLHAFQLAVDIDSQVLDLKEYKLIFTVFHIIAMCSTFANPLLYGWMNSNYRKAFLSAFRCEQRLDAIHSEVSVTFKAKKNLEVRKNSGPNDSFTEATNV
# [3] = target: T1, Neuropeptide Y receptor type 4; assay: Antagonist activity at human neuropeptide Y receptor type 4 expressed in CHO cells co-expressing Gqi5-mtAEQ assessed as inhibition of hPP-induced calcium mobilization by Aequorin assay; type: functional, cell-based
# [4] = target: T3, Neuropeptide Y receptor type 1 (Homo sapiens, UniProt P25929); assay: Displacement of [3H]UR-MK114 from human neuropeptide Y receptor type 1 expressed in human SK-N-MC cells; type: cell-based
# T3 sequence (P25929 whole entry): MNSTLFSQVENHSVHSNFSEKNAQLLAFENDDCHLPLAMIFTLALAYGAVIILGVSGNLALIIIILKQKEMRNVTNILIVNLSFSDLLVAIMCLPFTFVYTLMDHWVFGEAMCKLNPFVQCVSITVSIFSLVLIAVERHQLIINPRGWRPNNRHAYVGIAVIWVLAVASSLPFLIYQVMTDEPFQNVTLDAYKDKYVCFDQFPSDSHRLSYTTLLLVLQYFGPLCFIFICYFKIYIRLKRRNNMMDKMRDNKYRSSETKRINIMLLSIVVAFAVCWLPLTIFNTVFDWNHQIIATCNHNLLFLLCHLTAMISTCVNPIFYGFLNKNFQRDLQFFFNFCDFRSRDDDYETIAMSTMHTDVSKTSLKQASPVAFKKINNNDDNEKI
# [5] = target: T4, Neuropeptide Y receptor type 5 (Homo sapiens, UniProt Q15761); assay: Binding affinity to human neuropeptide Y receptor type 5 receptor expressed in HEC-1B cells using Cy5-pNPY by flow cytometric analysis; type: cell-based
# T4 sequence (Q15761 whole entry): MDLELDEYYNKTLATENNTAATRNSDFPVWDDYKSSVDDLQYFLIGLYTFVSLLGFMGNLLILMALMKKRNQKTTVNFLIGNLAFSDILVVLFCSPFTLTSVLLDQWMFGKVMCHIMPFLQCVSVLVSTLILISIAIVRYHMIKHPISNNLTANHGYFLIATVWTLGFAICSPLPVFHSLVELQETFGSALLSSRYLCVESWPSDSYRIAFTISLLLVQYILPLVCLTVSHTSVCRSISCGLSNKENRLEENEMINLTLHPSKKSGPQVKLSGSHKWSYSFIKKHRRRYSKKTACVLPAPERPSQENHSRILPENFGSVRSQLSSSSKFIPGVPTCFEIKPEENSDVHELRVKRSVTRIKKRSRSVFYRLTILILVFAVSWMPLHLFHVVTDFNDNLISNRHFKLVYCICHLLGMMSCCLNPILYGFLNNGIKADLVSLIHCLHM
# T1 sequence (P50391 whole entry): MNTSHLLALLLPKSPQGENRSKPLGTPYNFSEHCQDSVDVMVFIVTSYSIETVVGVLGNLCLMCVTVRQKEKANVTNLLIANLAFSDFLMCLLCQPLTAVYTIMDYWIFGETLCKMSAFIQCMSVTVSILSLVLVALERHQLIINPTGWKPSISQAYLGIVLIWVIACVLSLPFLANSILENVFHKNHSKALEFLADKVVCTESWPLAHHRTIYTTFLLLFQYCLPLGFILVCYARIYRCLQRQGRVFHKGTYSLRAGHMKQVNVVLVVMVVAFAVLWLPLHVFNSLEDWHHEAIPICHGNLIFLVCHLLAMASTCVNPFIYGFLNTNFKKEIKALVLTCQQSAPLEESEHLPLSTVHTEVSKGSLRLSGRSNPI
Structure (SMILES),Ki [1] [nM],Ki [2] [nM],Kb [3] [nM],Ki [4] [nM],Ki [5] [nM]
NCCN(CCNC(=O)c1ccc(C(=O)NCCOCCOCCNC(=O)/N=C(/N)NCCC[C@H](NC(=O)C(c2ccccc2)c2ccccc2)C(=O)NCc2ccc(O)cc2)cc1)CCNC(=O)c1ccc(C(=O)NCCOCCOCCNC(=O)/N=C(/N)NCCC[C@H](NC(=O)C(c2ccccc2)c2ccccc2)C(=O)NCc2ccc(O)cc2)cc1,260,1400,27,> 5000,> 5000
NCCNC(=O)CCC(=O)NCCNC(=O)/N=C(\N)NCCC[C@H](NC(=O)C(c1ccccc1)c1ccccc1)C(=O)NCc1ccc(CNC(N)=O)cc1,4100,> 5000,> 5000,> 5000,–
NCCOCCOCCNC(=O)CCC(=O)NCCNC(=O)/N=C(\N)NCCC[C@@H](NC(=O)C(c1ccccc1)c1ccccc1)C(=O)NCc1ccc(CNC(N)=O)cc1,> 5000,–,–,77,–
N=C(N)NCCC[C@@H](NC(=O)C(c1ccccc1)c1ccccc1)C(=O)NCc1ccc(O)cc1,> 5000,–,–,–,–
"N=C(N)NCCCC(NC(=O)CC1(CC(=O)N2CCN(C3c4ccccc4NC(=O)c4ccccc43)CC2)CCCC1)C(=O)NCCn1c(=O)n(-c2ccccc2)n(-c2ccccc2)c1=O (single isomer, unassigned)",> 7500,–,–,> 5000,> 5000
NCCNC(=O)CCC(=O)NCCNC(=O)/N=C(\N)NCCC[C@@H](NC(=O)C(c1ccccc1)c1ccccc1)C(=O)NCc1ccc(CNC(N)=O)cc1,> 5000,–,–,360,–
NCCOCCOCCNC(=O)CCC(=O)NCCNC(=O)/N=C(\N)NCCC[C@H](NC(=O)C(c1ccccc1)c1ccccc1)C(=O)NCc1ccc(CNC(N)=O)cc1,3200,> 5000,> 5000,> 5000,> 5000
N=C(N)NCCC[C@@H](NC(=O)C(c1ccccc1)c1ccccc1)C(=O)NCc1ccc(CNC(=O)NCCCCNC(=O)NCCN)cc1,–,–,–,890,–
NCCNC(=O)CCC(=O)NCCNC(=O)CCC(=O)NCCNC(=O)/N=C(\N)NCCC[C@@H](NC(=O)C(c1ccccc1)c1ccccc1)C(=O)NCc1ccc(CNC(N)=O)cc1,> 5000,–,–,1000,–
NC(N)=NCCC[C@H](NC(=O)C(c1ccccc1)c1ccccc1)C(=O)NCc1ccc(O)cc1,> 5000,–,–,–,–
NCCC(=O)NCCNC(=O)CCC(=O)NCCNC(=O)/N=C(\N)NCCC[C@H](NC(=O)C(c1ccccc1)c1ccccc1)C(=O)NCc1ccc(CNC(N)=O)cc1,3300,> 5000,> 5000,> 5000,> 5000
NCCCCCCNC(=O)/N=C(/N)NCCC[C@H](NC(=O)CC1(CC(=O)N2CCN(C3c4ccccc4NC(=O)c4ccccc43)CC2)CCCC1)C(=O)NCCn1c(=O)n(-c2ccccc2)n(-c2ccccc2)c1=O (some centres undefined),–,7,–,> 5000,–
NCCNC(=O)CCC(=O)NCCNC(=O)CCC(=O)NCCNC(=O)/N=C(\N)NCCC[C@H](NC(=O)C(c1ccccc1)c1ccccc1)C(=O)NCc1ccc(CNC(N)=O)cc1,> 5000,> 5000,> 5000,> 5000,> 5000
NCCCCNC(=O)/N=C(/N)NCCC[C@@H](NC(=O)C(c1ccccc1)c1ccccc1)C(=O)NCc1ccc(O)cc1,> 5000,–,–,–,–
N=C(N)NCCC[C@@H](NC(=O)C(c1ccccc1)c1ccccc1)C(=O)NCc1ccc(CNC(=O)NCCCCNC(=O)CNC(=O)CCC(=O)NCCN(CCN)CCNC(=O)CCC(=O)NCC(=O)NCCCCNC(=O)NCc2ccc(CNC(=O)[C@@H](CCCNC(=N)N)NC(=O)C(c3ccccc3)c3ccccc3)cc2)cc1,2200,2300,900,200,> 5000
N=C(N)NCCC[C@@H](NC(=O)C(c1ccccc1)c1ccccc1)C(=O)NCc1ccc(CNC(N)=O)cc1,> 5000,–,> 5000,–,–
NCCC(=O)NCCNC(=O)CCC(=O)NCCNC(=O)CCC(=O)NCCNC(=O)/N=C(\N)NCCC[C@H](NC(=O)C(c1ccccc1)c1ccccc1)C(=O)NCc1ccc(CNC(N)=O)cc1,3500,> 5000,> 5000,> 5000,> 5000
NCCCOCCOCCOCCNC(=O)CCC(=O)NCCNC(=O)/N=C(\N)NCCC[C@H](NC(=O)C(c1ccccc1)c1ccccc1)C(=O)NCc1ccc(CNC(N)=O)cc1,3700,> 5000,> 5000,> 5000,> 5000
NCCCCCCNC(=O)/N=C(/N)NCCC[C@@H](NC(=O)C(c1ccccc1)c1ccccc1)C(=O)NCc1ccc(CNC(N)=O)cc1,> 5000,–,> 5000,200,–
NCCC(=O)NCCNC(=O)CCC(=O)NCCNC(=O)/N=C(\N)NCCC[C@@H](NC(=O)C(c1ccccc1)c1ccccc1)C(=O)NCc1ccc(CNC(N)=O)cc1,> 5000,–,–,86,–
N=C(N)NCCOCCOCCNC(=O)/N=C(/N)NCCC[C@@H](NC(=O)C(c1ccccc1)c1ccccc1)C(=O)NCc1ccc(O)cc1,3800,–,–,130,> 5000
NCCOCCOCCNC(=O)/N=C(/N)NCCC[C@H](NC(=O)C(c1ccccc1)c1ccccc1)C(=O)NCc1ccc(O)cc1,–,> 5000,–,> 5000,> 5000
NCCC(=O)NCCNC(=O)CCC(=O)NCCNC(=O)CCC(=O)NCCNC(=O)/N=C(\N)NCCC[C@@H](NC(=O)C(c1ccccc1)c1ccccc1)C(=O)NCc1ccc(CNC(N)=O)cc1,> 5000,–,–,1200,–

# Continued, values first:
Ki [1] [nM],Ki [2] [nM],Kb [3] [nM],Ki [4] [nM],Ki [5] [nM],Structure (SMILES)
–,–,–,73,–,CCC(=O)NCC(=O)NCCCCNC(=O)NCc1ccc(CNC(=O)[C@@H](CCCNC(=N)N)NC(=O)C(c2ccccc2)c2ccccc2)cc1
270,1300,33,40,> 5000,NCCN(CCNC(=O)CCC(=O)NCCCCCCNC(=O)/N=C(/N)NCCC[C@@H](NC(=O)C(c1ccccc1)c1ccccc1)C(=O)NCc1ccc(O)cc1)CCNC(=O)CCC(=O)NCCCCCCNC(=O)/N=C(/N)NCCC[C@@H](NC(=O)C(c1ccccc1)c1ccccc1)C(=O)NCc1ccc(O)cc1
550,1000,32,42,> 5000,NCCN(CCNC(=O)CCCCC(=O)NCCCCNC(=O)/N=C(/N)NCCC[C@@H](NC(=O)C(c1ccccc1)c1ccccc1)C(=O)NCc1ccc(O)cc1)CCNC(=O)CCCCC(=O)NCCCCNC(=O)/N=C(/N)NCCC[C@@H](NC(=O)C(c1ccccc1)c1ccccc1)C(=O)NCc1ccc(O)cc1
> 5000,–,> 5000,41,–,N=C(N)NCCC[C@@H](NC(=O)C(c1ccccc1)c1ccccc1)C(=O)NCc1ccc(CNC(=O)NCCCCN)cc1
–,–,–,9.9,–,NCCCCCCNC(=O)/N=C(/N)NCCC[C@@H](NC(=O)C(c1ccccc1)c1ccccc1)C(=O)NCc1ccc(O)cc1
2000,–,–,63,–,NC(=NCCC[C@@H](NC(=O)C(c1ccccc1)c1ccccc1)C(=O)NCc1ccc(O)cc1)NC(=O)CCCCCCC(=O)NC(N)=NCCC[C@@H](NC(=O)C(c1ccccc1)c1ccccc1)C(=O)NCc1ccc(O)cc1
–,–,–,31,–,NCCOCCOCCNC(=O)/N=C(/N)NCCC[C@@H](NC(=O)C(c1ccccc1)c1ccccc1)C(=O)NCc1ccc(CNC(N)=O)cc1
–,–,–,14,–,N=C(N)NCCC[C@@H](NC(=O)C(c1ccccc1)c1ccccc1)C(=O)NCc1ccc(CNC(=O)NCCCCNC(=O)CN)cc1
> 5000,–,–,71,–,NCCCOCCOCCOCCNC(=O)CCC(=O)NCCNC(=O)/N=C(\N)NCCC[C@@H](NC(=O)C(c1ccccc1)c1ccccc1)C(=O)NCc1ccc(CNC(N)=O)cc1
210,780,34,53,> 5000,NCCN(CCNC(=O)c1ccc(C(=O)NCCCCNC(=O)/N=C(/N)NCCC[C@@H](NC(=O)C(c2ccccc2)c2ccccc2)C(=O)NCc2ccc(O)cc2)cc1)CCNC(=O)c1ccc(C(=O)NCCCCNC(=O)/N=C(/N)NCCC[C@@H](NC(=O)C(c2ccccc2)c2ccccc2)C(=O)NCc2ccc(O)cc2)cc1
> 5000,> 5000,–,7.3,> 5000,NCCOCCOCCNC(=O)/N=C(/N)NCCC[C@@H](NC(=O)C(c1ccccc1)c1ccccc1)C(=O)NCc1ccc(O)cc1
